# Paper PMC5065719 (Biochemistry, 2013)
# Target: IscU (Azotobacter vinelandii, UniProt O31270)
# Assay: UV/Vis absorption and visible CD during in vitro Fe-S cluster assembly
# Type: binding
# Settings: anaerobic, IscS, Cys, DTT, cluster assembled in situ
# Sequence of IscU (O31270 whole entry): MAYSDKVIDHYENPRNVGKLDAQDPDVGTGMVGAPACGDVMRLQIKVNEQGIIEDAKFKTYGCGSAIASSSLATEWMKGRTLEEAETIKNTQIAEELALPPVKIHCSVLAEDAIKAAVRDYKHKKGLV
structure (smiles),measurement,value
[S]1[Fe][S][Fe]1 [[2Fe-2S] cluster],UV/Vis absorption and visible CD during in vitro Fe-S cluster assembly,shows the formation of the [2Fe-2S] cluster as previously reported for IscU (A)
